Test results taken from US20250129083A1, “IMIDAZOTETRAZINE COMPOUNDS AND TREATMENT OF TMZ-RESISTANT CANCERS” (THE BOARD OF TRUSTEES OF THE UNIVERSITY OF ILLINOIS, priority 2022, published 2025).
Where two headings read alike, the source gives them in different places.

Key:
[1] = test system: S. typhimurium TA100 strain; test: Ames test, TA100; format: cell-based; conditions: 30 μM; for Ames test revertant (mutated) colonies, TA100: 5 days, no S9 activation
Description: Next, we measured the mutagenicity of CPZ versus TMZ. TMZ and other DNA methylating chemotherapies are known mutagens, inducing G:C→A:T mutations due to erroneous recognition of O^6-methylguanine. […] CPZ and TMZ (at 30 μM) were also assessed in the E. coli WP2 uvrA pKM101 strain, which is considered one of the more sensitive Ames tester strains available.
Ames Test. Compounds were assessed at the indicated concentrations in the TA100 tester strain using the Muta-ChromoPlate 96-well microplate version of the Ames test (Environmental Bio-Detection Products, Prod. No. 5051) according to manufacturer's instructions. In brief, TA100 S. typhimurium bacteria were grown overnight and plated with compound, growth medium, and indicator (no S9 activation) in 96 well plates. Bacteria were incubated for 5 days before the number of wells per 96 well plate containing revertant colonies were identified colorimetrically.

[2] = test system: RKO colon cancer cell line; test: Cell viability assay (Alamar Blue, 7 days), RKO; format: cell-based; conditions: 168 h
Description: (§1) Cell Culture and Reagents. All cell lines were grown in a 37° C., 5% CO2, humidified environment, in media containing 1% penicillin/streptomycin. Stable cell line generation of GL261 MGMT+ was purchased from Creative Biogene. Cell culture conditions are as follows: cell lines U87, T98G, and RKO were grown in EMEM with 10% FBS. D54, GL261, GL261 MGMT+, and U118MG cell lines were grown in DMEM with 10% FBS. HCT116 cells were grown in RMPI with 10% FBS. D341 Med cells were grown in EMEM with 20% FBS. Temozolomide (TMZ) was purchased from AK Scientific. TMZ analogues were synthesized as described below. Compounds were dissolved in DMSO (1% final concentration, Fisher Chemical) for cell culture studies.
(§2) Cell Viability Assays. Cells were harvested, seeded in a 96-well plate and allowed to adhere. After three hours, compound was added to each well in DMSO (1% final concentration). Cells were incubated for seven days (unless otherwise noted) before viability was assessed by the Alamar Blue assay. Raptinal (20 μM) was used as a dead control.

[3] = Assessment of hematological toxicity; format: in vivo
Description: Arguably the most important question when designing an alkylating agent able to evade MGMT-mediated resistance is the resultant effect on hematological toxicity. MGMT operates as a systemic protectant against alkylating xenobiotics. […] Therefore, an MGMT-independent alkylating agent like CPZ could render off-target cells vulnerable to irreparable DNA alkylation and result in a similar degree of toxicity. We hypothesized that the increased BBB permeability of CPZ would divert enough of the drug to the brain such that it could be tolerated at a therapeutically useful dose. The hematological effects of a single dose of TMZ or CPZ were compared head-to-head in vivo. Mice were treated with 125 mg/kg TMZ or CPZ intravenously; this dose was selected because 125 mg/kg TMZ is known to induce nonlethal toxicity in mice. After 7 days, the mice were sacrificed and complete blood counts were obtained. […] Additionally, the maximum tolerated dose (MTD) of CPZ was determined to be 66 mg/kg when dosed intraperitoneally (IP), once-per-day over five days. This matches the reported MTD of TMZ at the same schedule (˜66 mg/kg).
Assessment of Hematological Toxicity. Male CD-1 IGS mice (n≥3 mice/group) were administered a single dose of 125 mg/kg compound intravenously. Imidazotetrazines were formulated with DMSO, Tween-20, and 30% (w/v) SBE-PCD in sterile water immediately prior to injection. […]

[4] = test system: D341 Med medulloblastoma cell line; test: Cell viability assay (Alamar Blue, 7 days), D341 Med; format: cell-based; conditions: Homo sapiens, 168 h, MGMT (+)/MMR (−), 7 day
Description: as §1, §2

[5] = test system: genomic DNA of A172 cells; test: Quantitation of O6-guanine DNA adducts in cells, A172; format: cell-based; conditions: MGMT-negative; LC-MS/MS
Description: Importantly, because CPZ was designed to release a different active species than TMZ, the alkylation pattern in a cellular context is likely different. Therefore, to assess if alkylation still occurs with CPZ, a DNA alkylation assay was performed. GL261 cells were treated with 100, 300, or 500 μM TMZ or CPZ for 8 hours after which the cells were harvested and genomic DNA was extracted and subsequently hydrolyzed to constituent deoxyribonucleosides. LC-MS/MS analysis was employed to quantify the amount of O^6-methyl-2′-deoxyguanosine (O^6-Me-dG) or O^6-propargylated-2′-O^6-deoxyguanosine (O^6-Prop-dG) in each sample.
Quantitation of O^6-guanine DNA Adducts in Cells. GL261, A172, or D54 cells were plated at 1×10^6 c/w in a 6-well plate before they were treated with compound at the indicated concentration (1% final concentration DMSO). After incubation for the indicated time, the cells were harvested and pelleted. Genomic DNA was extracted using the DNeasy Blood & Tissue Kit (Qiagen, ID: 69504). DNA was then precipitated using the following procedure: 1/10 v/v […] sodium acetate (pH 5.2) and 2.5× v/v ethanol was added to each sample which was then kept at −80° C. for 1 h. […] Hydrolyzed samples were then submitted for LC-MS/MS quantitation along with a synthetic standard. Samples were analyzed with a 5500 QTRAP LC/MS/MS system (AB Sciex) with a 1200 series HPLC system (Agilent).

U118MG cells = test: Cell viability assay (Alamar Blue, 7 days), U118MG; format: cell-based; conditions: Homo sapiens, U-118-MG, 168 h, MGMT (+) MMR (+), 600 c/w, SEM, n=3
Description: as §1, §2
(§3) Plated 1500 c/w for GL261; 600 c/w for U87; 600 c/w for U118MG; 1500 c/w for GL261 MGMT+ Incubated ovn and added 1 μL of compound in DMSO the next day. Incubated over 7 days; added Alamar Blue to assess cell viability and used 10 μM Raptinal as dead control. Error is SEM, n=3.

[6] = Maximum tolerated dose / tolerability in mice; format: in vivo; conditions: in vivo, 66 mg/kg, once per day over 5 days
U87 GBM cell line = test: Cell viability assay (Alamar Blue, 7 days), U87; format: cell-based, human; conditions: Homo sapiens, 168 h
Description: as §1, §2, §3

[7] = 7 days, read-out: Activity, RKO
[8] = MGMT (+)/MMR (−), 7 day, read-out: IC50, RKO
[9] = female, C57BL/6, mouse, ip, intraperitoneal, read-out: MTD, I.P.
[10] = MGMT (−) MMR (+), 600 c/w, SEM, n=3, read-out: Activity, U87

| SMILES | Mutagenicity, TA100 [1] | Ames test revertant (mutated) colonies, TA100 [1] | IC50 [2, 7] [µM] | IC50 [2, 8] [µM] | Other hematological symptoms such as thrombocytopenia ([3]; mouse, in vivo, iv, 125 mg/kg) | IC50 [4] [µM] | O6-dG alkylation adducts, A172 [5] | IC50 (U118MG cells) [µM] | MTD at 5 days [6, 9] [mg/kg] | IC50 (U87 GBM cell line; [10]) [µM] | White blood cell, lymphocyte, and neutrophil counts ([3]; mice, single 125 mg/kg IV dose, 7 days) | MTD at 5 days ([6]; mouse, intravenous, read-out: MTD, I.V.) [mg/kg] | IC50 (U87 GBM cell line; MGMT (−), Alamar Blue, error SEM, n ≥ 3, read-out: Seven-day IC50, U87) [µM] |
| --- | --- | --- | --- | --- | --- | --- | --- | --- | --- | --- | --- | --- | --- |
| C#CCn1nnc2c(Cl)ncn2c1=O [CPZ, 8-chloro-3-(prop-2-yn-1-yl)imidazo[5,1-d][1,2,3,5]tetrazin-4(3H)-one] | non-mutagenic | no revertant colonies | 10 ± 1 | 10 | did not give rise to other hematological symptoms such as thrombocytopenia | 8 | did not harbor measurable levels of the propargyl adduct | 17 ± 1 | 66 | 16 ± 6 | – | – | – |
| Cn1nnc2c(C(N)=O)ncn2c1=O [TMZ, temozolomide, reference compound] | mutagenic | 35/96 | > 1000 | > 1000 | – | 460 | dose-dependent increase in methyl adducts | 322 ± 7 | 66 | 51 ± 8 | depletions in white blood cells, lymphocytes, and neutrophils | 66 | ~50 |
